For 15 compounds, IC50 results are on record in patent publication US12637440B2, “Amide derivative useful as diacylglycerol acyltransferase 2 inhibitor, and use thereof” (LG CHEM, LTD., priority 2019, dated 2026).

What is called IC50 is the point on the concentration scale where inhibition reaches its midpoint.

SMILES strings stand for the structures.

This experiment concerns the target T1, Recombinant human DGAT2 protein (Homo sapiens, UniProt Q96PD7).
T1 construct: FLAG (DYKDDDDK); (N); made in house; host or cells: Sf-21 insect cells (BacPAK baculovirus system); used as a membrane preparation
T1 sequence (Q96PD7 1-388): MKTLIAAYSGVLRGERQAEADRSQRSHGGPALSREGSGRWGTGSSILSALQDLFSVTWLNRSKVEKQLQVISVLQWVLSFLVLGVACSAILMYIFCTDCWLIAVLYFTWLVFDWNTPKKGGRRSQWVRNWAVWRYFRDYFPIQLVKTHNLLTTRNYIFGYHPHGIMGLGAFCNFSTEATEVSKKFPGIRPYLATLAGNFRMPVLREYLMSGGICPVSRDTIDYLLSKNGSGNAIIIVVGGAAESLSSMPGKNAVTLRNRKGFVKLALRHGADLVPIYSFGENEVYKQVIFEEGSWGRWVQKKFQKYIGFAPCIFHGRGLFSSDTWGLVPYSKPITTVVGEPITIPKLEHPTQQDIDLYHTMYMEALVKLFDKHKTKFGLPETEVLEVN
Put plainly: Measurement of inhibitory effect against DGAT2 enzyme activity (SPA, Phospholipid FlashPlate, [14C]-TG production). Format: biochemical. Particulars: concentration inhibiting [14C]-labeled triacyl glycerol (TG) production by 50%; 2 μg DGAT2-membrane protein from Sf-21 cells, 37° C. The method, then: Experimental Example: Measurement of Inhibitory Effect Against DGAT2 Enzyme Activity
In order to prepare the pBacPAK9-DGAT2, which is DGAT2 expression vector, the human DGAT2 gene amplified by polymerase chain reaction (PCR) was cloned into the EcoR1 and Xho1 sites of the pBacPAK9 (clonctech) vector. The nucleotide sequence of the primers used in PCR was the forward primer 5′ […] and the reverse primer 5′ […]. The composition of the reaction solution was to contain 50 ng of cDNA clone (OriGene), 200 μM of dATP, dCTP, dTTP, dGTP, 200 nM of each primer, 1 unit of Tag DNA Polymerase (Toyobo), 1×PCR buffer, and the final volume was adjusted to 20 μl. The reaction conditions were denatured at 95° C. for 5 minutes, followed by 30 times of 94° C. for 20 seconds, 60° C. for 20 seconds, and 72° C. for 90 seconds, followed by further reaction at 72° C. for 7 minutes.
Recombinant human DGAT2 protein was expressed in Sf-21 cells, which are insect cells, by using the BacPack baculovirus expression system (Clontech). The brief manufacturing process is as follows. First, the pBacPAK9-DGAT2 expression vector was transfected with BacPAK6 virus DNA (Bsu36I digest) into sf21 cells using Bacfectin to prepare a recombinant DGAT2 expressing baculovirus. The thus prepared baculovirus was infected with Sf-21 cells at 10 MOI (multiplicity of infection), and after 72 hours, infected insect cells were collected and membrane proteins were isolated. For membrane protein separation, the cell pellet was dissolved in a sucrose solution containing 250 mM sucrose, 10 mM Tris (pH 7.4), and 1 mM ethylenediamine-tetraacetic acid (EDTA), and then homogenized by using a dounce homogenizer, and the supernatant was taken by centrifuging at 600×g for 15 minutes, and centrifuged at 100,000×g for 1 hour to discard the supernatant, and the remaining pellet was resuspended in 20 mM HEPES buffer (pH 7.4). The prepared DGAT2 overexpressing membrane protein was dispensed in 100 μl and stored at −80° C. until use. Protein concentration was quantified by using the BCA Protein Assay Kit (Thermo Scientific).
In vitro DGAT2 analysis was performed using a Phospholipid Flash Plate (PerkinElmer) based on the principle of SPA (Scintillation Proximity Assay). First, DGAT2 inhibition compounds serially diluted 5 times from 3 nM to 10 μM (final concentration, 1% DMSO) were mixed in a buffer solution containing 2 μg DGAT2-membrane protein and 20 mM HEPES, 20 mM MgCl2, 1 mg/mL BSA, 50 μM 1,2 sn-oleoyl glycerol (Sigma), put in a 96-well flash plate (FlashPlate) and reacted at 37° C. for 20 minutes, and then 1 μM [14C] ole oil CoA (PerkinElmer, NEC651050UC) was added to be a final volume of 100 μL and further reacted at 37° C. for 15 minutes. After the enzymatic reaction was completed, 100 μL of isopropanol was added, the plate was sealed with a film, and the plate was shaken slowly in a plate shaker. The next day, the amplified scintillation signal (cpm) in Topcounter (Packard) was measured to measure the degree of production of [14C]-labeled triacyl glycerol (TG) as a reaction product. The measured value when the compound was not treated was used as a positive control, and the measured value of the compound treated group was calculated as a relative % to measure the inhibition effect of the compound on TG production.

For the compound `CCOc1ccccc1O[C@@H]1CCCN(c2cncc(NC(=O)Nc3cc(C(F)(F)F)cc(C(F)(F)F)c3)n2)C1` [Example 1, (R)-1-(3,5-bis(trifluoromethyl)phenyl)-3-(6-(3-(2-ethoxyphenoxy)piperidin-1-yl)pyrazin-2-yl)urea], the IC50 is 45 nM.
The result for `CCOc1ccccc1O[C@@H]1CCCN(c2cncc(NC(=O)N[C@@H](Cc3ccccc3)C(=O)O)n2)C1` [Example 2, ((6-((R)-3-(2-ethoxyphenoxy)piperidin-1-yl)pyrazin-2-yl)carbamoyl)-L-phenylalanine] reads 16000 nM; that for `CCOc1ccccc1O[C@@H]1CCCN(c2cncc(NC(=O)N3CCOCC3)n2)C1` [Example 3, (R)—N-(6-(3-(2-ethoxyphenoxy)piperidin-1-yl)pyrazin-2-yl)morpholine-4-carboxamide], 2300 nM.
For `CCOc1ccccc1O[C@@H]1CCCN(c2cncc(NC(=O)N3CCCC3)n2)C1` [Example 4, (R)—N-(6-(3-(2-ethoxyphenoxy)piperidin-1-yl)pyrazin-2-yl)pyrrolidine-1-carboxamide], the IC50 is 1600 nM.
The result for `CCOc1ccccc1O[C@@H]1CCCN(c2cncc(NC(=O)N3CCC(C(=O)O)C3)n2)C1` (stereo partly drawn) [Example 5, 1-((6-((R)-3-(2-ethoxyphenoxy)piperidin-1-yl)pyrazin-2-yl)carbamoyl)pyrrolidine-3-carboxylic acid] reads 51000 nM; that for `CCOc1ccccc1O[C@@H]1CCCN(c2cncc(NC(=O)c3ccccc3)n2)C1` [Example 6, (R)—N-(6-(3-(2-ethoxyphenoxy)piperidin-1-yl)pyrazin-2-yl)benzamide], 53 nM.
The result for `CCOc1ccccc1O[C@@H]1CCCN(c2cncc(NC(=O)c3ccc(Cl)cc3)n2)C1` [Example 7, (R)-4-chloro-N-(6-(3-(2-ethoxyphenoxy)piperidin-1-yl)pyrazin-2-yl)benzamide] reads 45 nM; that for `CCOc1ccccc1O[C@@H]1CCCN(c2cncc(NC(=O)c3cccc(OC)c3)n2)C1` [Example 8, (R)—N-(6-(3-(2-ethoxyphenoxy)piperidin-1-yl)pyrazin-2-yl)-3-methoxybenzamide], 230 nM.
For `CCOc1ccccc1O[C@@H]1CCCN(c2cncc(NC(=O)c3ccc(OC)cc3)n2)C1` [Example 9, (R)—N-(6-(3-(2-ethoxyphenoxy)piperidin-1-yl)pyrazin-2-yl)-4-methoxybenzamide], the IC50 turned out to be 90 nM.
The same measure for `CCOc1ccccc1O[C@@H]1CCCN(c2cncc(NC(=O)c3ccc([N+](=O)[O-])cc3)n2)C1` [Example 10, (R)—N-(6-(3-(2-ethoxyphenoxy)piperidin-1-yl)pyrazin-2-yl)-4-nitrobenzamide]: 19 nM; for `CCOc1ccccc1O[C@@H]1CCCN(c2cncc(NC(=O)c3ccccc3C(=O)O)n2)C1` [Example 11, (R)-2-((6-(3-(2-ethoxyphenoxy)piperidin-1-yl)pyrazin-2-yl)carbamoyl)benzoic acid]: 16000 nM.
The same measure for `CCOc1ccccc1O[C@@H]1CCCN(c2cncc(NC(=O)c3ccc(CC(=O)O)cc3)n2)C1` [Example 12, (R)-2-(4-((6-(3-(2-ethoxyphenoxy)piperidin-1-yl)pyrazin-2-yl)carbamoyl)phenyl)acetic acid]: 4000 nM.
The same measure for `CCOc1ccccc1O[C@@H]1CCCN(c2cncc(NC(=O)c3ccc(C(C)(C)C(=O)O)cc3)n2)C1` [Example 13, (R)-2-(4-((6-(3-(2-ethoxyphenoxy)piperidin-1-yl)pyrazin-2-yl)carbamoyl)phenyl)-2-methylpropanoic acid]: 9100 nM; for `CCOc1ccccc1O[C@@H]1CCCN(c2cncc(NC(=O)c3ccc(OC(C)(C)C(=O)O)cc3)n2)C1` [Example 14, (R)-2-(4-((6-(3-(2-ethoxyphenoxy)piperidin-1-yl)pyrazin-2-yl)carbamoyl)phenoxy)-2-methylpropanoic acid]: 12000 nM; for `CCOc1ccccc1O[C@@H]1CCCN(c2cncc(NC(=O)C3CCN(S(C)(=O)=O)CC3)n2)C1` [Example 15]: 25 nM.
